Reference: patent publication US4698300A, “Process and reagent for the determination of α-amylase” (Merck Patent Gesellschaft mit beschrankter Haftung, priority 1983, dated 1987)

Legend:
[1] = pH dependency of the absorption; format: physicochemical; conditions: reagent solution adjusted to pH 7.1, pH increased and decreased stepwise, FIG. 2, versus 4-nitrophenol
Procedure: Determination of α-amylase, pH dependency of the absorption
Under the same conditions as in Example 1, there are measured the extinctions of two reagent solutions adjusted to a pH value of 7.1, one of which contains 2-chloro-4-nitrophenol, the other 4-nitrophenol.

α-amylase = assay: determination of α-amylase, time-reaction curve with α-glucosidase and β-glucosidase, extinction at 405 nm; format: biochemical; conditions: for extinction change per minute: substrate in α-amylase determination, FIG. 1, 405 nm, 30° C.
Procedure: For the determination of α-amylase, the reagent solution of substrate, α-glucosidase, β-glucosidase, buffer and activation agent is mixed with the sample solution and the extinction recorded at 405 nm e.g. at 30° C. Typically, 0.2-3.0 ml of reagent is mixed with 1.0-50 μl of sample for ordinary α-amylase concentrations.
Determination of α-amylase
A reagent composition is prepared which, per ml. of test volume, contains the following components: […]
2-chloro-4-nitrophenyl-β,D-
phosphate buffer (pH 6.8)
sodium chloride 0.05 Mol/l.
carrying out of the test: 1 ml. reagent + 10 μl. sample

[2] = optimum pH conditions of the α-amylase determination (6.8-7.1); cited from earlier work

## O=[N+]([O-])c1ccc(O)c(Cl)c1 [2-chloro-4-nitrophenol]
[1]
  influence of change of the pH value on the extinction: less strongly influenced by change of the pH value

## O=[N+]([O-])c1ccc(O[C@H]2O[C@H](CO)[C@@H](O[C@H]3O[C@H](CO)[C@@H](O[C@H]4O[C@H](CO)[C@@H](O[C@H]5O[C@H](CO)[C@@H](O[C@H]6O[C@H](CO)[C@@H](O[C@H]7O[C@H](CO)[C@@H](O[C@H]8O[C@H](CO)[C@@H](O)[C@H](O)[C@H]8O)[C@H](O)[C@H]7O)[C@H](O)[C@H]6O)[C@H](O)[C@H]5O)[C@H](O)[C@H]4O)[C@H](O)[C@H]3O)[C@H](O)[C@H]2O)cc1 [4-nitrophenyl-α,D-maltoheptaoside, reference compound]
α-amylase
  extinction change per minute: 0.024

## O=[N+]([O-])c1ccc(O)cc1 [p-nitrophenol]
[2]
  liberated p-nitrophenol present as colored phenolate anion: about 50%

## O=[N+]([O-])c1ccc(O[C@H]2O[C@H](CO)[C@@H](O[C@H]3O[C@H](CO)[C@@H](O[C@H]4O[C@H](CO)[C@@H](O[C@H]5O[C@H](CO)[C@@H](O[C@H]6O[C@H](CO)[C@@H](O[C@H]7O[C@H](CO)[C@@H](O[C@H]8O[C@H](CO)[C@@H](O)[C@H](O)[C@H]8O)[C@H](O)[C@H]7O)[C@H](O)[C@H]6O)[C@H](O)[C@H]5O)[C@H](O)[C@H]4O)[C@H](O)[C@H]3O)[C@H](O)[C@H]2O)c(Cl)c1 [2-chloro-4-nitrophenyl-α,D-maltoheptaoside, reference compound]
α-amylase
  extinction change per minute: 0.036

## O=[N+]([O-])c1ccc(O[C@@H]2O[C@H](CO)[C@@H](O[C@H]3O[C@H](CO)[C@@H](O[C@H]4O[C@H](CO)[C@@H](O[C@H]5O[C@H](CO)[C@@H](O[C@H]6O[C@H](CO)[C@@H](O[C@H]7O[C@H](CO)[C@@H](O[C@H]8O[C@H](CO)[C@@H](O)[C@H](O)[C@H]8O)[C@H](O)[C@H]7O)[C@H](O)[C@H]6O)[C@H](O)[C@H]5O)[C@H](O)[C@H]4O)[C@H](O)[C@H]3O)[C@H](O)[C@H]2O)c(Cl)c1 [2-chloro-4-nitrophenyl-β,D-maltoheptaoside]
α-amylase; line I in comparison with line III (4-nitrophenyl-α,D-maltoheptaoside), FIG. 1, Example 1
  increase of the change of absorption (Δ E/min.): ~ 0.05
α-amylase; relative to 4-nitrophenyl-α,D-maltoheptaoside, FIG. 1
  factor of increase of extinction change per minute: 3
α-amylase
  extinction change per minute: above 0.075
